Laboratory results reported in patent publication US12643887B2, “Heterocyclic derivatives with cardiomyocyte proliferation activity for treatment of heart diseases” (Tongji University, priority 2019, dated 2026).

How the values were obtained:
[1] = test system: Neonatal Rat Ventricular Myocytes (NRVMs); test: Myocyte proliferation assay (EdU assay) in neonatal rat ventricular myocytes; type: cell-based; conditions: growth relative to blank myocyte growth without compound added; for Avg 1 uM (average myocyte proliferation): compound 1 uM; for Avg 3 uM (average myocyte proliferation): compound 3 uM; for Avg 10 uM (average myocyte proliferation): compound 10 uM
Procedure: 1. Isolation of and Culture Neonatal Rat Ventricular Myocytes (NRVMs)
Ventricles from neonatal rats were separated from the atria, cut into small pieces (about 2×2 mm^2) and then dissociated in Ca2+-free HBSS containing 0.125 mg ml-1 trypsin (Gibco), 10 μg ml-1 DNase II (Sigma) and 0.1 mg ml-1 collagenase type IV (Sigma). The digestion was carried out under constant stirring at 37° C. for 5 min. The supernatant was collected with FBS (Gibco) after each digestion period. After digestion, the collected supernatant was centrifuged at 1000 g for 10 min at room temperature, and then cell pellets were resuspended in DMEM (Gibco) supplemented with 10% FBS and with 100 uM 5-bromo-2′-deoxyuridine (Sigma). The resuspended cells were passed through a cell strainer ([…], BD Falcon) and seeded onto 100-mm plastic dishes for 2 h at 37° C. in a 5% CO2 to remove fibroblasts, the supernatant was then collected and plated onto 1% gelatin (Sigma)-coated dishes. 24 h after the seeding, the medium was changed to DMEM (Gibco) containing 2% FBS (Gibco), 1% insulin-transferrin-selenium (ITS; Gibco), 1% Penicillin-Streptomycin (Gibco). After 24 hours of low serum culture, remove the medium with DMEM (Gibco) containing 6% FBS (Gibco), 1% insulin-transferrin-selenium (ITS; Gibco), 1% Penicillin-Streptomycin (Gibco), different concentrations of compounds (the compounds were pre-diluted in the medium and the drug concentration was 10 uM, 3 uM, 1 uM, fully mixed). After 36 h add Edu substrate (Invitrogen) according to the manufacturer's guidelines, and then after 12 h cell can be used.
• 2.1. Immobilization: Remove the medium and fix the cells with […] in 200 ul (whichever is covered) for 15 min and wash the cells twice with 500 ul of PBS for 5 min each time. • 2.2. Broken membrane: Add 200 ul of 0.3% Triton-X 100 (diluted in PBS) to each well, incubate for 10-15 min at room temperature (the time should not be too long), and wash the cells twice with 500 ul of PBS for 5 min each time. • 2.3. Blocking: Add 200 ul of 10% normal goat serum (diluted with 0.1% PBST) to each well, incubate for 1 h at room temperature, and wash twice with 500 ul of 0.1% PBST for 5 min each time. • 2.4. Primary antibody: dilute the primary antibody (abcam, ab8295) to blocking solution at a ratio of 1:200, add 100 ul per well, incubate for 1 h at room temperature (may be slightly longer than 2-3 h), wash the cells twice with 500 ul 0.1% PBST for 5 min each time. • 2.5. Secondary antibody: Dilute the fluorescently labeled secondary antibody (abcam, ab150117) into blocking solution at a ratio of 1:200, add 100 ul per well, incubate for 1 h at room temperature (the time should not be too long), wash the cells twice with 0.1% PBST for 5 min each time, pay attention to the whole process. Protected from light. • 2.6. Edu staining (Invitrogen C10338) • 2.6.1 Prepare Click-iT® reaction cocktail according to Table 3. It was important to add the ingredients in the order listed in the table; otherwise, the reaction would not proceed optimally. Use the Click-iT® reaction cocktail within 15 minutes of preparation.
• 2.6.2 Add 0.1 mL of Click-iT® reaction cocktail to each well containing a coverslip. Rock the plate briefly to ensure that the reaction cocktail is distributed evenly over the coverslip. • 2.6.3 Incubate the plate for 30 minutes at room temperature, protected from light. • 2.6.4 Remove the reaction cocktail, then wash the cells twice with 0.1% PBST for 5 min each time. • 2.7. DAPI staining: DAPI stain was diluted to PBS at a ratio of 1:1000, 100 ul per well, incubated for 30 min at room temperature, and the cells were washed twice with PBS for 5 min each. 3. Data Analysis
We used Molecular Devices' Image Xpress Micro Confocal for high-throughput photo and data analysis.

human HIPK1 = biological target: T1, human HIPK1 (Homo sapiens, UniProt Q86Z02); test: HIPK1 enzyme assay (ADP-Glo); type: biochemical; conditions: ADP-Glo, ATP 5 μM; read-out: HIPK1 IC50
T1 construct: Recombinant human HIPK1 (156-555); GST (N); purchased SignalChem H03-11G; host or cells: Sf9 insect cells
T1 sequence (Q86Z02 156-555): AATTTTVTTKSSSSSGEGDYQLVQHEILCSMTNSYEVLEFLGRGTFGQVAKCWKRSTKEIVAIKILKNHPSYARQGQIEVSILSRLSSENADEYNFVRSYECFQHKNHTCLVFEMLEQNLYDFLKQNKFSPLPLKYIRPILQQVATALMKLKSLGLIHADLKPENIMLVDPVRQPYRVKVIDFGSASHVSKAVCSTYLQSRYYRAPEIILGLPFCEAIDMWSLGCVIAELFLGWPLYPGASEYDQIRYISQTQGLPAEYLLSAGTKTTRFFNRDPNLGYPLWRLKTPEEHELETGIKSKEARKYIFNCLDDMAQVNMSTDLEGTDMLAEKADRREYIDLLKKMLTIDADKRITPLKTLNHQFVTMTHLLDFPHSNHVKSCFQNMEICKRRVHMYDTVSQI
Procedure: The ability of compounds to inhibit human HIPK1 kinase activities was determined using a commercially available ADP-Glo™ Kinase Assay kit (Promega, Cat #V9102) according to the manufacturer's protocol.
Recombinant human HIPK1 (156-555) (expressed in Sf9 insect cells with an N-terminal GST tag) was purchased from SignalChem (Cat #H03-11G). Recombinant full length human MBP (expressed in E. Coli cells with an N-terminal GST tag) was purchased from SignalChem (Cat #M42-54G). This assay, run in a 384-well plate format, is a generic method for measuring kinase activities using an ADP-Glo Kinase Assay Kit. The basic assay procedure involves two steps: (1) Enzymatic step: inhibitors are incubated with the kinase and then ATP (included in the ADP-Glo Kinase Assay Kit) and the MBP protein are added to start the enzymatic reaction; (2) Detection step: after the kinase reaction, first ADP-Glo™ Reagent is added to terminate the kinase reaction and deplete the remaining ATP. Second, the Kinase Detection Reagent is added to simultaneously convert ADP to ATP and allow the newly synthesized ATP to be measured using a luciferase/luciferin reaction. The light generated is measured using a luminometer.
Briefly, HIPK1 (4 nM) in the enzymatic buffer solutions (40 mM Tris, pH 7.5, 20 mM MgCl2, 0.1 mg/ml BSA, 50 μM DTT) were mixed with various concentrations of inhibitors (dissolved in 100% DMSO). These solutions were incubated for 30 minutes at 25° C., and subsequently a mixture of substrate peptide and ATP was added with the final peptide and ATP concentrations at 0.05 mg/ml and 5 μM, respectively. The final reaction mixture of enzyme-substrate-ATP-compound was incubated for 90 minutes at 25° C.
Afterwards ADP-Glo™ Reagent was added and the mixture was incubated at 25° C. for 60 minutes. Then Kinase Detection Reagent was added, and the final mixture was incubated at 25° C. for 60 minutes. The luminescence signal of the final solution was measured on an Envision instrument (PerkinElmer). The percent (%) inhibition at each concentration of a compound is calculated relative to the luminescence signal in the Max and Min control wells contained within each assay plate. […] The concentrations and percent inhibition values for a test compound are plotted and the concentration of the compound required to achieve 50% inhibition (IC50) is determined with a four-parameter logistic dose response equation.

O=C1NC(Nc2ccccc2)=N/C1=C\c1ccc2[nH]cnc2c1 [Example 26, (Z)-5-((1H-benzo[d]imidazol-5-yl)methylene)-2-(phenylamino)-3,5-dihydro-4H-imidazol-4-one]
Avg 1 uM (average myocyte proliferation) [1]: * (<10% growth relative to blank myocyte growth without compound added.)
Avg 3 uM (average myocyte proliferation) [1]: * (<10% growth relative to blank myocyte growth without compound added.)
Avg 10 uM (average myocyte proliferation) [1]: * (<10% growth relative to blank myocyte growth without compound added.)
IC50 (human HIPK1): 0.1 to 1 µM

O=C(O)CCN(C1=N/C(=C\c2ccc3c(c2)OCO3)C(=O)N1)c1ccccc1 [Example 27, (Z)-3-((4-(benzo[d][1,3]dioxol-5-ylmethylene)-5-oxo-4,5-dihydro-1H-imidazol-2-yl)(phenyl)amino)propanoic acid]
Avg 1 uM (average myocyte proliferation) [1]: * (<10% growth relative to blank myocyte growth without compound added.)
Avg 3 uM (average myocyte proliferation) [1]: * (<10% growth relative to blank myocyte growth without compound added.)
Avg 10 uM (average myocyte proliferation) [1]: ** (10%-50%)
IC50 (human HIPK1): 1 to 10 µM

CN(Cc1ccccc1)C1=N/C(=C\c2ccc3ncsc3c2)C(=O)N1 [Example 28, (Z)-5-(benzo[d]thiazol-6-ylmethylene)-2-(benzyl(methyl)amino)-3,5-dihydro-4H-imidazol-4-one]
Avg 1 uM (average myocyte proliferation) [1]: * (<10% growth relative to blank myocyte growth without compound added.)
Avg 3 uM (average myocyte proliferation) [1]: * (<10% growth relative to blank myocyte growth without compound added.)
Avg 10 uM (average myocyte proliferation) [1]: * (<10% growth relative to blank myocyte growth without compound added.)
IC50 (human HIPK1): 1 to 10 µM

O=C1NC(NCCN2CCOCC2)=N/C1=C\c1ccc2ncsc2c1 [Example 29, (Z)-5-(benzo[d]thiazol-6-ylmethylene)-2-((2-morpholinoethyl)amino)-3,5-dihydro-4H-imidazol-4-one]
Avg 1 uM (average myocyte proliferation) [1]: ** (10%-50%)
Avg 3 uM (average myocyte proliferation) [1]: * (<10% growth relative to blank myocyte growth without compound added.)
Avg 10 uM (average myocyte proliferation) [1]: *** (>50%)
IC50 (human HIPK1): 1 to 10 µM

CN(C1=N/C(=C\c2ccc3[nH]cnc3c2)C(=O)N1)c1ccccc1 [Example 30, (Z)-5-((1H-benzo[d]imidazol-5-yl)methylene)-2-(methyl(phenyl)amino)-3,5-dihydro-4H-imidazol-4-one]
Avg 1 uM (average myocyte proliferation) [1]: * (<10% growth relative to blank myocyte growth without compound added.)
Avg 3 uM (average myocyte proliferation) [1]: * (<10% growth relative to blank myocyte growth without compound added.)
IC50 (human HIPK1): > 10 µM

O=C1NC(NCc2ccccc2)=N/C1=C\c1ccc2ncsc2c1 [Example 31, (Z)-5-(benzo[d]thiazol-6-ylmethylene)-2-(benzylamino)-3,5-dihydro-4H-imidazol-4-one]
Avg 1 uM (average myocyte proliferation) [1]: ** (10%-50%)
Avg 3 uM (average myocyte proliferation) [1]: ** (10%-50%)
IC50 (human HIPK1): 0.1 to 1 µM

CN(CCN1CCOCC1)C1=N/C(=C\c2ccc3ncsc3c2)C(=O)N1 [Example 32, (Z)-5-(benzo[d]thiazol-6-ylmethylene)-2-(methyl(2-morpholinoethyl)amino)-3,5-dihydro-4H-imidazol-4-one]
Avg 1 uM (average myocyte proliferation) [1]: * (<10% growth relative to blank myocyte growth without compound added.)
Avg 3 uM (average myocyte proliferation) [1]: * (<10% growth relative to blank myocyte growth without compound added.)
IC50 (human HIPK1): > 10 µM

CN(CC1CC1)C1=N/C(=C\c2ccc3ncsc3c2)C(=O)N1 [Example 33, (Z)-5-(benzo[d]thiazol-6-ylmethylene)-2-((cyclopropylmethyl)(methyl)amino)-3,5-dihydro-4H-imidazol-4-one]
Avg 1 uM (average myocyte proliferation) [1]: * (<10% growth relative to blank myocyte growth without compound added.)
Avg 3 uM (average myocyte proliferation) [1]: * (<10% growth relative to blank myocyte growth without compound added.)
IC50 (human HIPK1): > 10 µM

O=C1NC(NCC2CC2)=N/C1=C\c1ccc2ncsc2c1 [Example 34, (Z)-5-(benzo[d]thiazol-6-ylmethylene)-2-((cyclopropylmethyl)amino)-3,5-dihydro-4H-imidazol-4-one]
Avg 1 uM (average myocyte proliferation) [1]: ** (10%-50%)
Avg 3 uM (average myocyte proliferation) [1]: *** (>50%)
IC50 (human HIPK1): 1 to 10 µM

O=C1NC(N(Cc2ccccc2)c2ccccc2)=N/C1=C\c1ccc2[nH]cnc2c1 [Example 35, (Z)-5-((1H-benzo[d]imidazol-5-yl)methylene)-2-(benzyl(phenyl)amino)-3,5-dihydro-4H-imidazol-4-one]
Avg 1 uM (average myocyte proliferation) [1]: * (<10% growth relative to blank myocyte growth without compound added.)
Avg 3 uM (average myocyte proliferation) [1]: * (<10% growth relative to blank myocyte growth without compound added.)
IC50 (human HIPK1): > 10 µM

NC(=O)CCN(C1=N/C(=C\c2ccc3c(c2)OCO3)C(=O)N1)c1ccccc1 [Example 36, (Z)-3-((4-(benzo[d][1,3]dioxol-5-ylmethylene)-5-oxo-4,5-dihydro-1H-imidazol-2-yl)(phenyl)amino)propanamide]
Avg 1 uM (average myocyte proliferation) [1]: * (<10% growth relative to blank myocyte growth without compound added.)
Avg 3 uM (average myocyte proliferation) [1]: ** (10%-50%)
IC50 (human HIPK1): > 10 µM

CN(C1=N/C(=C\c2ccc3c(c2)OCO3)C(=O)N1)c1ccc(N)cc1 [Example 37, (Z)-2-((4-aminophenyl)(methyl)amino)-5-(benzo[d][1,3]dioxol-5-ylmethylene)-3,5-dihydro-4H-imidazol-4-one]
Avg 1 uM (average myocyte proliferation) [1]: *** (>50%)
Avg 3 uM (average myocyte proliferation) [1]: ** (10%-50%)
Avg 10 uM (average myocyte proliferation) [1]: ** (10%-50%)
IC50 (human HIPK1): > 10 µM
